≈ marks a conversion by molar mass, not a printed value.
Tests used:
[1] = target: T1, glucocerebrosidase (Gcase) (Homo sapiens, UniProt P04062); test: Glucocerebrosidase (Gcase) activation assay, 4-methylumbelliferyl-beta-D-glucopyranoside substrate, with saposin C; type: biochemical; conditions: for activation at 0.1 µM: 0.1 μM test compound, read-out: Percent Gcase Activation 0.1 μM Test Compound; for activation at 1 µM: 1 μM test compound, read-out: Percent Gcase Activation 1 μM Test Compound
T1 sequence (P04062 40-536): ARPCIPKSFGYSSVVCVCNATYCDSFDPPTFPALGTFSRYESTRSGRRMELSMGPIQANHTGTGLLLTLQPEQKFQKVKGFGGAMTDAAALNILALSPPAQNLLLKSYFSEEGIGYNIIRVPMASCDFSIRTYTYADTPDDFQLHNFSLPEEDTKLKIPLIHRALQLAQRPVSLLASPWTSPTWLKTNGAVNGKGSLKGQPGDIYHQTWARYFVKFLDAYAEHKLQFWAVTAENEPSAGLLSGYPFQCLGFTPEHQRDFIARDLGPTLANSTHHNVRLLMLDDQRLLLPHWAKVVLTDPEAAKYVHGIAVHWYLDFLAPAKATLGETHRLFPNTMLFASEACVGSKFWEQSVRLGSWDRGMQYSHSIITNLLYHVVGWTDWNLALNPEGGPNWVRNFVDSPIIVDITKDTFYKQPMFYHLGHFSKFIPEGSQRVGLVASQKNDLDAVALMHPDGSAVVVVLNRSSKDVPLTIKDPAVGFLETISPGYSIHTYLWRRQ
Experimental: The ability of exemplary compounds to activate glucocerebrosidase (Gcase) was measured.
A 484 μL aliquot of a 1.0 mg/mL solution of phosphatidylserine (PS) (Sigma P7769) in chloroform was evaporated under a stream of nitrogen for 1 hour. The lipid film was dissolved over 4 minutes of vigorous vortexing in 40 mL of 176 mM K2HPO4/50 mM citric acid (pH 4.7) containing 7.5 μL of triton X-100, resulting in a mixed micellar preparation with a composition of 0.32 mM triton and 0.37 mol % PS. 4-Methylumbelliferyl-beta-D-glucopyranoside (ACROS-337025000) was dissolved in the micellar solution to a final concentration of 2 mM for use as the reaction substrate.
Test compounds were diluted to the desired concentrations with dimethylsulfoxide (DMSO) from 10 mM stocks, and 0.41 μL of the DMSO compound mixture was added to 100 μL of micellar solution containing 10 nM GCase and 100 nM saposin C (Enzo ALX-201-262-C050). Pre-incubation was allowed to occur for 30 minutes at room temperature, after which the reaction was initiated by combining 25 μL of substrate solution with 25 μL of compound/GCase/saposin mixture. The reaction proceeded for 15 minutes at room temperature and was stopped by adding 150 μL of 1M glycine, pH 12.5. The endpoint of the reaction was monitored by measuring fluorescence intensity (excitation: 365 nm; emission: 440 nm) on a SpectraMax i3 instrument (Molecular Devices). Test compounds were screened at 1.0 and 0.1 μM final concentration, and subsequent 8-point dose response curves were obtained using 3-fold dilutions from a maximum final concentration of […].

[2] = Compound solubility in water; type: physicochemical

SMILES	activation at 0.1 µM [1] [%]	activation at 1 µM [1] [%]	solubility [2] [µg/mL]
C#Cc1cccc([C@H](NC(=O)c2ncn3c(C)cc(C)nc23)C(F)(F)F)c1 [III-5]	> 20	> 60	5.9 (≈ 15.8 µM)
Cc1cc(C)n2cnc(C(=O)N[C@@H](C)C3CC3)c2n1 [III-6]	< 10	< 30	24.4 (≈ 94.5 µM)
Cc1cc(C)n2cnc(C(=O)NC(C)(C)C3CC3)c2n1 [III-8]	< 10	< 30	25.2 (≈ 92.5 µM)
Cc1cc(C)n2cnc(C(=O)NC(C)C3CCCCC3)c2n1 (stereo not drawn) [III-9]	< 10	> 60	14.3 (≈ 47.6 µM)
Cc1cc(C)n2cnc(C(=O)NC(CC(C)C)C3CC3)c2n1 (stereo not drawn) [III-11]	10 to 20	> 60	32.6 (≈ 109 µM)
Cc1cc(-c2ccc(F)cc2)nc2c(C(=O)N[C@@H](C)C3CC3)ncn12 [III-12]	10 to 20	> 60	9.3 (≈ 27.5 µM)
Cc1cc(-c2ccc(F)cc2)n2cnc(C(=O)N[C@@H](C)C3CC3)c2n1 [III-13]	< 10	< 30	25 (≈ 73.9 µM)
Cc1cc(C)n2cnc(C(=O)NC(C3CC3)C(F)(F)F)c2n1 (stereo not drawn) [III-14]	< 10	30 to 60	37.8 (≈ 121 µM)
Cc1cc(C)n2cnc(C(=O)NC(C3CCCCC3)C(F)(F)F)c2n1 (stereo not drawn) [III-15]	> 20	> 60	4 (≈ 11.3 µM)
Cc1cc(C)n2cnc(C(=O)NC(c3ccc(F)cc3)C(F)(F)F)c2n1 (stereo not drawn) [III-16]	10 to 20	> 60	24.3 (≈ 66.3 µM)
CNc1cc(C)n2cnc(C(=O)NC(c3ccc(F)cc3)C(F)(F)F)c2n1 (stereo not drawn) [III-17]	> 20	> 60	0.9 (≈ 2.36 µM)
CNc1cc(C)nc2c(C(=O)NC(c3ccc(F)cc3)C(F)(F)F)ncn12 (stereo not drawn) [III-18]	> 20	> 60	1.7 (≈ 4.46 µM)
COc1cc(C)n2cnc(C(=O)NC(c3ccc(F)cc3)C(F)(F)F)c2n1 (stereo not drawn) [III-19]	10 to 20	> 60	8.7 (≈ 22.8 µM)
COc1cc(C)nc2c(C(=O)NC(c3ccc(F)cc3)C(F)(F)F)ncn12 (stereo not drawn) [III-20]	< 10	> 60	6.9 (≈ 18 µM)
CCOc1cc(C)n2cnc(C(=O)NC(c3ccc(F)cc3)C(F)(F)F)c2n1 (stereo not drawn) [III-21]	> 20	> 60	1.1 (≈ 2.78 µM)
COCc1cc(C)n2cnc(C(=O)NC(c3ccc(F)cc3)C(F)(F)F)c2n1 (stereo not drawn) [III-22]	< 10	> 60	24.7 (≈ 62.3 µM)
COCc1cc(C)nc2c(C(=O)NC(c3ccc(F)cc3)C(F)(F)F)ncn12 (stereo not drawn) [III-23]	> 20	> 60	10.9 (≈ 27.5 µM)
Cc1cc(Cl)nc2c(C(=O)NC(c3ccc(F)cc3)C(F)(F)F)ncn12 (stereo not drawn) [III-24]	10 to 20	> 60	10.4 (≈ 26.9 µM)
Cc1cc(C)n2cnc(C(=O)NC(C)(C)C3CC4(CCC4)C3)c2n1 [III-25]	> 20	> 60	1.5 (≈ 4.59 µM)
Cc1cc(-c2ccc(F)cc2)nc2c(C(=O)NC(C)(C)C3CC3)ncn12 [III-26]	> 20	> 60	1.6 (≈ 4.54 µM)

SMILES	activation at 0.1 µM [1] [%]	activation at 1 µM [1] [%]	solubility [2] [µg/mL]
Cc1cc(-c2ccccn2)nc2c(C(=O)NC(CC(C)C)C3CC3)ncn12 (stereo not drawn) [III-27]	> 20	> 60	4.6 (≈ 12.7 µM)
Cc1cc(-c2ccncc2)nc2c(C(=O)NC(CC(C)C)C3CC3)ncn12 (stereo not drawn) [III-28]	< 10	> 60	19.7 (≈ 54.2 µM)
Cc1cc(-c2ccccn2)nc2c(C(=O)N[C@@H](C)c3ccccc3F)ncn12 [III-29]	10 to 20	> 60	0.9 (≈ 2.4 µM)
COc1ccccc1[C@H](C)NC(=O)c1ncn2c(C)cc(-c3ccc(F)cc3)nc12 [III-30]	10 to 20	> 60	1.3 (≈ 3.21 µM)
CCC(NC(=O)c1ncn2c(C)cc(-c3ccccn3)nc12)c1ccc(F)cc1 (stereo not drawn) [III-31]	10 to 20	> 60	2.7 (≈ 6.93 µM)
CCc1cc(-c2ccc(F)cc2)nc2c(C(=O)N[C@@H](C)C3CC3)ncn12 [III-33]	> 20	> 60	10.5 (≈ 29.8 µM)
COc1cc(-c2ccc(F)cc2)nc2c(C(=O)N[C@@H](C)C3CC3)ncn12 [III-34]	< 10	< 30	0.2 (≈ 0.564 µM)
COCc1cc(-c2ccc(F)cc2)n2cnc(C(=O)N[C@@H](C)C3CC3)c2n1 [III-35]	< 10	< 30	43.5 (≈ 118 µM)
COCc1cc(-c2ccc(F)cc2)nc2c(C(=O)N[C@@H](C)C3CC3)ncn12 [III-36]	10 to 20	> 60	22 (≈ 59.7 µM)
C[C@H](NC(=O)c1ncn2cc(-c3ccc(F)cc3)cnc12)C1CC1 [III-37]	< 10	< 30	2.2 (≈ 6.78 µM)
Cc1cc(-c2cccnc2)nc2c(C(=O)NC(C)(C)C3CC3)ncn12 [III-41]	< 10	30 to 60	27.1 (≈ 80.8 µM)
Cc1cc(-c2ccccn2)nc2c(C(=O)NC(C)(C)C3CC3)ncn12 [III-42]	< 10	> 60	4 (≈ 11.9 µM)
Cc1cc(-c2cccnc2)nc2c(C(=O)NC(C)C3CC3)ncn12 (stereo not drawn) [III-43]	< 10	< 30	31.1 (≈ 96.8 µM)
Cc1cc(-c2ccccn2)nc2c(C(=O)NC(C)C3CC3)ncn12 (stereo not drawn) [III-44]	< 10	< 30	26 (≈ 80.9 µM)
Cc1cc(-c2cccnc2)nc2c(C(=O)N[C@@H](C)c3ccccc3F)ncn12 [III-45]	< 10	30 to 60	5 (≈ 13.3 µM)
Cc1cc(C)n2cnc(C(=O)NC(C)(C)CC3CC3)c2n1 [III-46]	< 10	> 60	12 (≈ 41.9 µM)
Cc1cc(C)n2cnc(C(=O)NC(C)C(C)C3CC3)c2n1 (stereo not drawn) [III-47]	< 10	30 to 60	24.2 (≈ 84.5 µM)
Cc1cc(-c2cccnc2)nc2c(C(=O)NC(c3ccc(F)cc3)C(F)(F)F)ncn12 (stereo not drawn) [III-48]	> 20	> 60	7.1 (≈ 16.5 µM)
Cc1cc(-c2ccccn2)nc2c(C(=O)NC(c3ccc(F)cc3)C(F)(F)F)ncn12 (stereo not drawn) [III-49]	> 20	> 60	6.7 (≈ 15.6 µM)

Source: patent publication US9920061B2, “Imidazo[1,5-A]pyrimidinyl carboxamide compounds and their use in the treatment of medical disorders” (Lysosomal Therapeutics Inc., priority 2016, dated 2018)
